Test results taken from patent publication US20240226066A1, “CARDIOPROTECTION BY AUTOPHAGY INDUCTION AND METABOLIC REPROGRAMMING” (UNIVERSITE PARIS-SACLAY, priority 2021, published 2024).
Read-outs that look alike come from different tables or passages of the source.

Experiments:
[1] = target: T1, hERG potassium channel (Homo sapiens, UniProt Q12809); experiment: hERG channel binding assay ([3H]dofetilide displacement); settings: for inhibition at 10 µM: human, probe [3H]dofetilide
T1 construct: Eurofins
Description: The evaluation of the binding of the compounds to the human hERG potassium channel was carried out as described previously (Eurofins).
Since the blocking of the human potassium channel hERG channel may be responsible for cardiac fibrillation leading to cardiac arrest and death of the patient, the binding of the 3 molecules SG6163F, VP331 and LOPA87 to this receptor was evaluated.

[2] = tested on: primary rat neonatal ventricular cardiomyocytes (RNVCs); experiment: Protection of RNVCs against camptothecin-induced apoptosis (LDH release, propidium iodide); assay type: cell-based; settings: camptothecin 10 μM
Description: Neonatal rat cardiomyocytes were isolated as described previously (Wang et al., Cell Death Dis, 2016, 7:e2198).
(§1) A colorimetric assay was used to measure lactate dehydrogenase (LDH), a cytosolic enzyme which is released during permeabilization of the plasma membrane (Promega G1780). The assay was performed using cell culture supernatants obtained from H9C2 or RNVC (rat neonatal ventricular myocyte) cells and lysis buffer (LB) was used as a positive control for total cell lysis. The LDH release was measured by absorbance reading at 490 nm (Infinite spectrofluorimeter, Tecan).
Propidium iodide, a non-permeable fluorescent DNA marker, was used to measure membrane integrity. Propidium iodide at 10 μM was added to the culture medium and a fluorescence reading was performed (for […]: 530 nm; em: 620 nm), the LB was used as a positive control for total cell lysis.
(§2) The effect of the compounds was then evaluated on primary rat neonatal ventricular cardiomyocytes (RNVCs) using the LDH test and propidium iodide staining. […] The absence of proliferative effects of the compounds was also evaluated on the A549 lung cancer cell line for 48 h (FIG. 2C).

[3] = tested on: A549 lung cancer cell line; experiment: Influence of hits on growth of A549 cancer cells (total LDH after lysis); assay type: cell-based; settings: 48 h
Description: The cells were cultured for 6 h in the presence or absence of the hits, and then for 42 h. Finally, the cells were lysed with lysis buffer and the amount of LDH was measured to evaluate the total cell growth.
as §1, §2

[4] = tested on: RNVCs; experiment: Mitochondrial network and cell volume by confocal microscopy (Mitotracker, calcein-AM, IMARIS); assay type: cell-based, rat; settings: 1 and 10 μM, 6 h
Description: FIG. 6. Effects on mitochondrial dynamics by fluorescence microscopy The RNVCs were treated with 1 μM hits (FIG. 6A) and 10 μM hits (FIG. 6B) for 6 h and the mitochondrial network was stained with 200 nM of Mitotracker. The mitochondrial network and individual mitochondria were then analyzed using a Leica confocal microscope and IMARIS software. Data are presented as mean±SEM with single-factor ANOVA, and multiple Sidak comparisons. *, p<0.05, **, p<0.01, ***, p<0.001 with respect to DMSO.
FIG. 11: following the treatment of the RNVCs with the compounds as indicated, the cell volume was stained with 4 μM of calcein-AM. The cell volume was then analyzed using the IMARIS software.
Confocal microscopy. On day 0, 4×10^5 neonatal cardiomyocytes were plated overnight on laminin-coated 35 mm culture dishes (10 μg/ml). On day 1, the cells were treated with various compounds at 1 or 10 μM for 6 hours. The cells were incubated with Mitotracker Red 580 at 200 nM for 20 minutes at 37° C., then 4 μM of calcein (Calcein AM, Life Technologies, St Aubin, France) for 10 minutes at 37° C. The images were acquired with a Leica confocal microscope (SP5) (Mannheim, Germany). The mitochondrial network and the 3D model of cell volume were reconstructed using the IMARIS software (Bitplane Company, Zurich, Switzerland); therefore the cell volume, mitochondrial number and volume were analyzed.
Due to the importance of mitochondria and reactive oxygen species (ROS) levels in the fate of cardiomyocyte cells, the hypothesis that the compounds could impact the mitochondrial network was explored. Following treatment of the RNVCs with the compounds tested, the mitochondrial network was stained with 200 nM of Mitotracker and the cell volume with 4 μM of calcein-AM. Thus, the mitochondrial network and the individual mitochondria were then analyzed using the IMARIS software.

[5] = tested on: RNVCs; experiment: Mitochondrial ROS production with MitoSOX fluorescent probe; assay type: cell-based, rat; settings: 1 μM, 6 h
Description: FIG. 12: The RNVCs were treated with 0.1% DMSO, 3 μM rapamycin, 1 μM digitoxigenin, 1 μM digoxin, 1 μM minaprin, 1 μM VP331, 1 μM LOPA87, 10 μM SG6163F for 6 h, then the ROS production was stained with the MitoSOX fluorescent probe.
The RNVCs were treated with 0.01% DMSO, 3 μM rapamycin, […], 1 μM digoxin, 1 μM minaprine, 1 μM VP331, 1 μM LOPA87, 10 μM SG6163F in a serum-free cell culture medium for 6 hours. The contents (50 μg) of a MitoSOX™ mitochondrial superoxide indicator vial (ThermoFisher, M36008) were dissolved in 13 μl dimethyl sulfoxide (DMSO) to prepare a 5 mM MitoSOX™ reagent stock solution. Next, the 5 mM MitoSOX™ reagent stock solution in PBS was diluted to prepare a 5 μM working solution of MitoSOX™ reagent. After treatment, the cells were rinsed twice with hot PBS and then incubated with a MitoSOX reagent working solution for 10 minutes at 37° C. The cells were gently rinsed three times with hot PBS. Red fluorescence was detected with a Leica confocal microscope. Nuclear fluorescence was suppressed and mitochondrial fluorescence intensity was measured using ImageJ software.
ROSs are produced or accumulated as a by-product of mitochondrial activity metabolism. Thus, the ROSs may be a consequence of mitochondrial function or may reflect a defect in the mitochondrial antioxidant system.

[6] = tested on: AMP-activated protein kinase (AMPK); experiment: Western blot of AMPK phosphorylation in RNVCs; assay type: cell-based, rat
Description: FIG. 8D: AMPK alpha2 and phospho-AMPK protein levels in RNVCs. Data are presented as mean±SEM with single-factor ANOVA, and multiple Sidak comparisons. *, p<0.05, **, p<0.01, ***, p<0.001 with respect to DMSO.
The H9C2 cells and RNVCs were detached in LB containing: 50 mM Tris, 150 mM NaCl, 1 mM EDTA, 0.5% deoxycholate, 1% Triton X 100, 0.1% SDS (pH 8.0). The cells were collected and placed on ice for 30 minutes. The cells were then centrifuged at 2000 g for 20 minutes at for 4° C. The supernatant was transferred to a new tube and stored on ice. The protein concentration was determined by BCA assay. The protein samples were diluted with sample buffer (2× Laemmli, Sigma), mixed, and heated for 5 minutes at 95° C. The samples were then loaded into a precast gel with a gradient of 4 to 20% and migrated for 15 minutes at 300 V. After migration, the membrane and the gel were placed on the base of a Trans Blot Turbo cassette (Bio Rad) and the proteins were transferred for 3 minutes at 2.5 V. After transfer, the membrane was blocked with 5% milk in PBS-Tween and incubated with a primary antibody diluted in PBS-Tween containing 5% w/v milk at 4° C. with gentle stirring, overnight. […] The images were recorded with a gel imaging system (Bio Rad). […]
Next, the energy metabolism was analyzed in real time using the Seahorse technology in H9C2 cells.

T1 sequence (Q12809 whole entry): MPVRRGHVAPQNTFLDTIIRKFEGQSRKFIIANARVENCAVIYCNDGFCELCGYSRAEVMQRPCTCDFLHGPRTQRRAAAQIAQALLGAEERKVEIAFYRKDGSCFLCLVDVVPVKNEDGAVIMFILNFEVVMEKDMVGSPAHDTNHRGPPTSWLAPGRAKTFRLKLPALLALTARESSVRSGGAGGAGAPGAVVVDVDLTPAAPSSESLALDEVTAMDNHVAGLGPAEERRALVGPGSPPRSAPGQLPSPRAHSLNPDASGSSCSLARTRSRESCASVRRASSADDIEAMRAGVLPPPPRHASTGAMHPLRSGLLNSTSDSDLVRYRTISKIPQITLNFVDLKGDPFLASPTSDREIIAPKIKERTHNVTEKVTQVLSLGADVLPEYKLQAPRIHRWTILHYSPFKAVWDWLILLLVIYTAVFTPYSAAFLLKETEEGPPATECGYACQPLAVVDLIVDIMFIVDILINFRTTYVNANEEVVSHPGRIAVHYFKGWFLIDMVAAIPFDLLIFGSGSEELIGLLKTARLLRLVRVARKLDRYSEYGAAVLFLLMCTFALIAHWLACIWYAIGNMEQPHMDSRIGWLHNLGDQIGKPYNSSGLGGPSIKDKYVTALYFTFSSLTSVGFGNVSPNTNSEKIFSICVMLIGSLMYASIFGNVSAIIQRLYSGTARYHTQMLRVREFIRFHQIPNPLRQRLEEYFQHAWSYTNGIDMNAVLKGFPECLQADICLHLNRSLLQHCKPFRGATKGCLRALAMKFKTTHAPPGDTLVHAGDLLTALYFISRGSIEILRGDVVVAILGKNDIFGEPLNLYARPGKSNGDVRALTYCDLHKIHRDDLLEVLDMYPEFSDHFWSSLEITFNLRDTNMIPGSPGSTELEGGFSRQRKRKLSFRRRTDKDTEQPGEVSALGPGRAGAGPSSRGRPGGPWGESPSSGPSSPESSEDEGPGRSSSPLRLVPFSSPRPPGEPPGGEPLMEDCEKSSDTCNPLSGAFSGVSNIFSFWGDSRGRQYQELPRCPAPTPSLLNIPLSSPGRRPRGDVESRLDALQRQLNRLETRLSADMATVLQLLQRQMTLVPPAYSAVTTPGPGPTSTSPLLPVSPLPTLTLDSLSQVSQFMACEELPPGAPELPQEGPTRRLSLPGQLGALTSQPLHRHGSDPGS

## CN(C)c1ccc(-c2cc(=O)[nH]c(-c3ccccc3)n2)cc1 [LOPA87]
[1]; inhibition of tritiated dofetilide binding, only values >50% considered effective, read-out: % inhibit 1st assay
  inhibition at 10 µM: 14.6%
[1]; inhibition of tritiated dofetilide binding, only values >50% considered effective, read-out: % inhibit 2nd assay
  inhibition at 10 µM: 5.3%
[1]; mean of two independent measurements, read-out: % inhibit Mean
  inhibition at 10 µM: 10%
[1]; inhibition of specific binding of [3H]dofetilide in vitro
  binding to the hERG channel: negligible
[2]
  inhibition of apoptosis of RNVCs: did not protect
[3]
  effect on A549 cell growth: no proliferative effect
[4]
  effect on the mitochondrial network: no effect
  number of mitochondria: no effect
[5]
  local level of mitochondrial superoxide anion: induced an elevation
[6]
  AMPK phosphorylation compared with the DMSO control: 1.5 fold
